Among the test systems are A549 NSCLC; BT-549 breast; MDA-MB-231 breast; NCI-H23 lung; SF-268 CNS; SNB-75 CNS; SW-620 colon; UACC-62 melanoma.
What all share (assay): growth of human tumour cells (NCI), 48 h

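All cell lines were grown in 96-well plates and treated with compound for 48 hours. GI50 = concentration required for 50% inhibition of growth. TGI is the concentration that stops growth completely.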 A value given as a limit tells only on which side of the number the result lay.

In the case of `Cc1c(Cn2c(C)nc3c(C(=O)O)cc(N4CCOCC4)cc32)cccc1C(F)(F)F`, the GI50 with A549 NSCLC is 54.3 µM; in the test with BT-549 breast, 25.8 µM; in the test with MDA-MB-231 breast, more than 100 µM; in the test on NCI-H23 lung, 81.5 µM; in the test on SF-268 CNS it was 56 µM; with SNB-75 CNS, 12.3 µM. Also, the figures for the GI50 in the test on SW-620 colon and in the test on UACC-62 melanoma were 45.5 µM and 21.1 µM, respectively. Also, the TGI in the test on A549 NSCLC, in the test on BT-549 breast, with MDA-MB-231 breast, in the test on NCI-H23 lung, in the test on SF-268 CNS and with SNB-75 CNS was more than 100 µM throughout. For the same compound, the TGI in the test on SW-620 colon and in the test with UACC-62 melanoma was more than 100 µM throughout.

As to `CC1=C([Te]c2ccccc2)C(=O)c2ccccc2C1=O`, the GI50 in the test on A549 NSCLC was 0.298 µM; with BT-549 breast it was 0.232 µM; in the test with MDA-MB-231 breast, 0.227 µM; in the test with NCI-H23 lung, 0.298 µM; in the test with SF-268 CNS it was 0.383 µM; with SNB-75 CNS it was 0.207 µM. For the same compound, the figures for the GI50 in the test on SW-620 colon and with UACC-62 melanoma were 0.475 µM and 1.43 µM, respectively. Besides, the TGI in the test with A549 NSCLC was determined as 1.23 µM; in the test on BT-549 breast, 0.842 µM; in the test with MDA-MB-231 breast, 0.573 µM; with NCI-H23 lung it was 1.05 µM; in the test on SF-268 CNS it was 1.64 µM; in the test on SNB-75 CNS, 0.898 µM. In addition, the TGI in the test on SW-620 colon worked out at 1.74 µM; with UACC-62 melanoma it was 3.8 µM.

In the case of `O=C1c2c(c(=O)[nH]c3ccccc23)[C@H](c2ccccc2)[C@@H]2CCCN12`, the GI50 with A549 NSCLC was 20.2 µM; in the test with BT-549 breast it was 4.84 µM; in the test on MDA-MB-231 breast it was 3.06 µM; in the test on NCI-H23 lung, 2.77 µM; in the test with SF-268 CNS, 3.68 µM; with SNB-75 CNS it was 2.64 µM. For the same compound, the GI50 with SW-620 colon is 3.38 µM; with UACC-62 melanoma, 3.14 µM. Besides, the TGI in the test on A549 NSCLC was more than 100 µM; with BT-549 breast, 55.2 µM; with MDA-MB-231 breast it was 27.5 µM; with NCI-H23 lung it was 37.9 µM; with SF-268 CNS, 23 µM; in the test with SNB-75 CNS, 16.9 µM. The TGI in the test with SW-620 colon is more than 100 µM; in the test with UACC-62 melanoma, 22.3 µM.

For `CCCc1nn(C)c2c(=O)[nH]c(-c3cc(S(=O)(=O)N4CCN(C)CC4)ccc3OCC)nc12`, the GI50 with A549 NSCLC is more than 100 µM; in the test with BT-549 breast, more than 100 µM; in the test with MDA-MB-231 breast, more than 100 µM; with NCI-H23 lung it was more than 100 µM; in the test with SF-268 CNS, more than 100 µM; in the test with SNB-75 CNS it was 53.2 µM. In addition, the GI50 with SW-620 colon and with UACC-62 melanoma was more than 100 µM throughout. Besides, the TGI in the test on A549 NSCLC, with BT-549 breast, in the test with MDA-MB-231 breast, in the test on NCI-H23 lung, with SF-268 CNS and in the test with SNB-75 CNS was more than 100 µM in each case. The TGI in the test with SW-620 colon and in the test with UACC-62 melanoma was more than 100 µM each time.

For the compound `Cc1cc2c(F)c(Oc3ncnc(Nc4ccc(N5C[C@@H](C)N[C@@H](C)C5)cc4)c3C#N)cc(F)c2[nH]1`, the GI50 in the test on A549 NSCLC was 2.84 µM; with BT-549 breast, 0.816 µM; with MDA-MB-231 breast, 1.98 µM; with NCI-H23 lung, 2.44 µM; with SF-268 CNS it was 2.07 µM; with SNB-75 CNS, 1.1 µM. Besides, the GI50 in the test on SW-620 colon was 1.83 µM; in the test on UACC-62 melanoma it was 2.37 µM. For the same compound, the TGI in the test with A549 NSCLC was 8.02 µM; with BT-549 breast, 2.38 µM; in the test on MDA-MB-231 breast it was 4.39 µM; in the test with NCI-H23 lung it was 11.3 µM; in the test with SF-268 CNS it was 8.36 µM; in the test with SNB-75 CNS, 3.18 µM. The TGI with SW-620 colon was determined as 4.1 µM; in the test on UACC-62 melanoma it was 4.89 µM.

As to `CN(C)c1ccc(/C=N/NC(N)=S)nc1`, the GI50 with A549 NSCLC is 4.61 µM; with BT-549 breast it was 4.39 µM; in the test on MDA-MB-231 breast it was 5.43 µM; in the test on NCI-H23 lung, 2.39 µM; with SF-268 CNS it was 2.22 µM; with SNB-75 CNS, 1.82 µM. The GI50 in the test on SW-620 colon is 3.14 µM; in the test on UACC-62 melanoma it was 3.39 µM. The TGI in the test with A549 NSCLC was more than 100 µM; in the test with BT-549 breast it was more than 100 µM; in the test on MDA-MB-231 breast it was more than 100 µM; in the test on NCI-H23 lung it was more than 100 µM; in the test on SF-268 CNS, 28.2 µM; with SNB-75 CNS, more than 100 µM. Also, the TGI with SW-620 colon and with UACC-62 melanoma was more than 100 µM throughout.

With `O=S(=O)(N=C1C(Cl)=C(Cl)C(=NS(=O)(=O)c2ccccc2)C(Cl)=C1Cl)c1ccccc1`, the GI50 with A549 NSCLC was 32.3 µM; with BT-549 breast, 17.3 µM; in the test on MDA-MB-231 breast, 21.9 µM; in the test with NCI-H23 lung, 25.6 µM; with SF-268 CNS, 16 µM; with SNB-75 CNS, 23.5 µM. Besides, the GI50 with SW-620 colon was 13.4 µM; in the test with UACC-62 melanoma, 13.3 µM. Moreover, the TGI is more than 100 µM with A549 NSCLC; 37.5 µM in the test on BT-549 breast; more than 100 µM in the test on MDA-MB-231 breast; more than 100 µM with NCI-H23 lung; 42.2 µM in the test on SF-268 CNS; more than 100 µM in the test with SNB-75 CNS. Also, the TGI with SW-620 colon worked out at 28 µM; in the test on UACC-62 melanoma it was 38.4 µM.

`CSc1ccc(C2=NN(C(C)=O)C(c3ccc(-c4cc(Cl)c(Cl)cc4Cl)o3)C2)cc1` (centres undefined): the GI50 in the test with A549 NSCLC was 17 µM; in the test on BT-549 breast, 16.6 µM; in the test with MDA-MB-231 breast, 11.3 µM; in the test with NCI-H23 lung, 15.4 µM; in the test with SF-268 CNS, 16.3 µM; in the test with SNB-75 CNS it was 18.7 µM. Moreover, the GI50 with SW-620 colon was 18.5 µM; in the test with UACC-62 melanoma it was 10.2 µM. For the same compound, the TGI with A549 NSCLC is 33 µM; with BT-549 breast, 30.8 µM; with MDA-MB-231 breast, 23.3 µM; in the test with NCI-H23 lung it was 29.6 µM; in the test on SF-268 CNS, 32.2 µM; in the test on SNB-75 CNS, 43.2 µM. The figures for the TGI in the test on SW-620 colon and with UACC-62 melanoma were 33.2 µM and 21.8 µM, respectively.

In the case of `COc1ccc(-c2ncnc3c2ncn3CC#CCCl)cc1`, the GI50 was 7.39 µM in the test on A549 NSCLC; 2.98 µM with BT-549 breast; 2.32 µM with MDA-MB-231 breast; 7.83 µM in the test on NCI-H23 lung; 1.66 µM in the test on SF-268 CNS; 1.64 µM in the test with SNB-75 CNS. Moreover, the GI50 with SW-620 colon is 2.99 µM; in the test on UACC-62 melanoma it was 3.32 µM. For the same compound, the TGI came out at 30.7 µM in the test with A549 NSCLC; 13.6 µM in the test with BT-549 breast; 8.28 µM in the test with MDA-MB-231 breast; 21.4 µM in the test with NCI-H23 lung; 4.13 µM in the test with SF-268 CNS; 4.84 µM with SNB-75 CNS. The TGI in the test on SW-620 colon worked out at 12.4 µM; in the test on UACC-62 melanoma, 15.2 µM.

The values are drawn from PubChem BioAssay (NCI).
